Test results as given in the NIST ThermoML archive (doi:10.1021/je700443d).
Values joined by “and” are separate entries in the source; they are usually repeats but may differ in a detail not shown here. Identical values can stand only once.

Settings: Liquid; for vapor or sublimation pressure: Closed cell (Static) method; for mass density: determined from pressure vs temperature measurement to find liquid-full point for a closed cell

CO[Si](OC)(OC)OC [silicon tetramethoxide]
Settings | mass density | vapor or sublimation pressure
334.15 K | 990 kg/m3 | 30 kPa
335.15 K | – | 30 kPa
336.15 K | – | 30 kPa
337.15 K | – | 30 kPa
338.15 K | – | 30 kPa
339.15 K | – | 30 kPa
341.15 K | – | 30 kPa
342.15 K | – | 30 kPa
343.15 K | – | 30 kPa
344.15 K | – | 30 kPa
345.15 K | – | 40 kPa
347.15 K | – | 40 kPa
348.15 K | 940 kg/m3 | 40 kPa
349.15 K | – | 40 kPa
351.15 K | – | 40 kPa
352.15 K | – | 40 kPa
353.15 K | – | 40 kPa
355.15 K | – | 40 kPa
356.15 K | – | 40 kPa
357.15 K | – | 50 kPa
358.15 K | – | 50 kPa
359.15 K | – | 50 kPa
361.15 K | – | 50 kPa
362.15 K | – | 50 kPa
363.15 K | – | 50 kPa
364.15 K | – | 50 kPa
365.15 K | 920 kg/m3 | 50 kPa
366.15 K | – | 60 kPa
368.15 K | – | 60 kPa
369.15 K | – | 60 kPa
370.15 K | – | 60 kPa
371.15 K | – | 60 kPa
372.15 K | – | 60 kPa
373.1 K | – | 70 kPa
374.15 K | – | 70 kPa
375.15 K | – | 70 kPa
377.15 K | – | 70 kPa
378.15 K | – | 80 kPa
379.15 K | – | 80 kPa
380.15 K | – | 80 kPa
381.15 K | – | 80 kPa
382.15 K | – | 90 kPa
383.15 K | 900 kg/m3 | –
384.15 K | – | 90 kPa
385.15 K | – | 90 kPa
386.15 K | – | 90 kPa
387.15 K | – | 100 kPa
388.15 K | – | 100 kPa
389.15 K | 880 kg/m3 | –
390.15 K | – | 100 kPa
391.15 K | – | 110 kPa
392.15 K | – | 110 kPa
393.15 K | – | 110 kPa
394.15 K | – | 120 kPa
395.15 K | – | 120 kPa
397.15 K | – | 130 kPa
398.15 K | – | 130 kPa
399.15 K | – | 130 kPa
400.15 K | – | 140 kPa
401.15 K | – | 140 kPa
403.15 K | – | 150 kPa
404.15 K | – | 150 kPa
405.15 K | – | 160 kPa
406.15 K | 850 kg/m3 | 160 kPa
407.15 K | – | 170 kPa
408.15 K | – | 170 kPa
409.15 K | – | 180 kPa
411.15 K | – | 180 kPa
412.15 K | – | 190 kPa
413.15 K | – | 190 kPa
414.15 K | – | 200 kPa
415.15 K | 840 kg/m3 | 200 kPa
417.15 K | – | 210 kPa
418.15 K | – | 220 kPa
419.15 K | – | 220 kPa
420.15 K | – | 230 kPa
421.15 K | – | 230 kPa
422.15 K | – | 240 kPa
424.15 K | – | 250 kPa
425.15 K | – | 260 kPa
426.15 K | – | 260 kPa
427.15 K | – | 270 kPa
428.15 K | – | 280 kPa
429.15 K | – | 280 kPa
430.15 K | – | 290 kPa
432.15 K | – | 300 kPa
433.15 K | – | 310 kPa
434.15 K | 800 kg/m3 | 320 kPa
435.15 K | – | 320 kPa
436.15 K | – | 330 kPa
437.15 K | – | 340 kPa
439.15 K | – | 350 kPa
440.15 K | 800 kg/m3 | 360 kPa
441.15 K | – | 360 kPa
442.15 K | – | 370 kPa
443.15 K | – | 380 kPa
444.15 K | – | 390 kPa
445.15 K | – | 400 kPa
447.15 K | – | 410 kPa
448.15 K | – | 410 kPa
449.15 K | – | 420 kPa
450.15 K | – | 430 kPa
451.15 K | – | 440 kPa
452.15 K | – | 450 kPa
453.15 K | – | 460 kPa
454.15 K | – | 470 kPa
456.15 K | – | 480 kPa
457.15 K | – | 490 kPa
458.15 K | – | 500 kPa
459.15 K | – | 510 kPa
460.15 K | – | 520 kPa
461.15 K | – | 530 kPa
462.15 K | – | 550 kPa
463.15 K | 750 kg/m3 and 770 kg/m3 | 560 kPa
465.15 K | – | 570 kPa
466.15 K | – | 580 kPa
467.15 K | – | 590 kPa
468.15 K | – | 610 kPa
469.15 K | – | 620 kPa
470.15 K | – | 630 kPa
471.15 K | – | 650 kPa
472.15 K | – | 660 kPa
474.15 K | – | 670 kPa
475.15 K | – | 690 kPa
476.15 K | – | 700 kPa
477.15 K | – | 720 kPa
478.15 K | – | 730 kPa
479.15 K | – | 750 kPa
480.15 K | 710 kg/m3 | 760 kPa
481.15 K | – | 780 kPa
482.15 K | – | 790 kPa
483.15 K | 730 kg/m3 | 810 kPa
485.15 K | – | 820 kPa
486.15 K | – | 840 kPa
487.15 K | – | 860 kPa
488.15 K | – | 870 kPa
489.15 K | – | 890 kPa
490.15 K | – | 910 kPa
491.15 K | – | 920 kPa
492.15 K | – | 940 kPa
493.15 K | – | 960 kPa
494.15 K | – | 980 kPa
495.15 K | – | 1000 kPa
497.15 K | – | 1010 kPa
498.15 K | – | 1030 kPa
499.15 K | – | 1050 kPa
500.15 K | – | 1070 kPa
501.15 K | – | 1090 kPa
502.15 K | 690 kg/m3 | 1110 kPa
503.15 K | – | 1130 kPa
504.15 K | – | 1150 kPa
505.15 K | – | 1160 kPa
506.15 K | – | 1180 kPa
507.15 K | – | 1200 kPa
508.15 K | – | 1220 kPa
509.15 K | – | 1250 kPa
510.15 K | – | 1270 kPa
512.15 K | – | 1280 kPa
513.15 K | – | 1300 kPa
514.15 K | – | 1320 kPa and 1340 kPa
516.15 K | – | 1360 kPa
517.15 K | – | 1380 kPa
518.15 K | – | 1400 kPa
519.15 K | 650 kg/m3 | 1420 kPa
520.15 K | – | 1440 kPa
521.15 K | – | 1460 kPa
522.15 K | – | 1480 kPa
532.15 K | 610 kg/m3 | –
